Key:
[1] = system: nasopharyngeal cancer HONE1 cell; test: Drug resistance (CDDP, 5-FU) induced by euPTX3, MTT assay; format: cell-based, human; details: HONE1; short peptide 10 μg/mL or 225 nM + euPTX3 2.5 μg/mL 1 week, then 40 μM CDDP or 100 μM 5-FU 48 hours; FIG. 3B
Method: (§1) The cell density 1×10^4 cells/well of the breast cancer MB231 cell, the lung cancer A549 cell and the nasopharyngeal cancer HONE1 cell were co-cultured with the short peptides RI37, GI40 and KT44 (10 μg/mL or 225 nM of the short peptide) and the polypeptide euPTX3 (2.5 μg/mL) of Example 1. After 1 week of cultivation, those cancer cells were added with 40 μM of CDDP or 100 μM of 5-FU respectively and cultured for 48 hours. Based on the cell viability of the cells only co-cultured with the polypeptide euPTX3 (2.5 μg/mL) as 100%, the influence of drug resistance of the cancer cells of Example 2 using the short peptides of Example 1 could be determined according to the aforementioned MTT assay.

[2] = system: lung cancer A549 cell; test: as above; format: cell-based, human; details: A549; short peptide 10 μg/mL or 225 nM + euPTX3 2.5 μg/mL 1 week, then 40 μM CDDP or 100 μM 5-FU 48 hours; FIG. 2B
Method: as §1

[3] = system: breast cancer MB231 cell; test: as above; format: cell-based, human; details: MB231; short peptide 10 μg/mL or 225 nM + euPTX3 2.5 μg/mL 1 week, then 40 μM CDDP or 100 μM 5-FU 48 hours; FIG. 1D
Method: as §1

[4] = system: nasopharyngeal cancer HONE1 cell; test: Cancer cell invasion (matrigel-coated insert) induced by euPTX3; format: cell-based, human; details: HONE1; short peptide 10 μg/mL + euPTX3 2.5 μg/mL; FIG. 3C right panel
Method: (§2) The cell density 5×10^4 cells/well of the breast cancer MB231 cell, the lung cancer A549 cell and the nasopharyngeal cancer HONE1 cell were seeded into each upper insert of 24-well plate (containing 8-μm pore insert per well; BD Biosciences), the upper insert and the lower well were separated by the polyethelene terephthalate membrane coated with matrigel (purchased from BD Bioscience), and cultured for 3 hours.
(§3) Next, the medium in each upper insert was replaced by serum-free medium, and the medium in each lower well was added with the short peptides RI37, GI40, KT44 and the polypeptide euPTX3 and pPTX3/C of Example 1. The cells inside each upper insert were wiped with cotton swabs and removed after 16 hours of cultivation. Remaining cells that had migrated to the bottom of the insert membrane were stained by 4′, 6-diamidino-2-phenylindole (DAPI; Invitrogen) and calculated under fluorescence microscopy with 200-fold magnification.

[5] = system: lung cancer A549 cell; test: as above; format: cell-based, human; details: A549; short peptide 10 μg/mL + euPTX3 2.5 μg/mL; FIG. 2C right panel
Method: as §2, §3

[6] = system: drug-resistant breast cancer MB231R (MBR) cells; test: Cancer cell migration (Boyden chamber) induced by euPTX3; format: cell-based, human
Method: [The procedure below names another cell line; the source lists this cell line under the same test.] The cell density 5×10^4 cells/well of the breast cancer MB231 cell, the lung cancer A549 cell and the nasopharyngeal cancer HONE1 cell were seeded into each upper insert of 24-well plate (containing 8-μm pore insert per well; BD Biosciences) for 19 hours, and each lower well was added with the short peptides RI37, GI40 and KT44 (10 μg/mL or 225 nM of the short peptide) and the polypeptide euPTX3 (2.5 μg/mL) of Example 1, for evaluating the influence of migration of the cancer cell of Example 2 using several short peptides of Example 1.
The cell density 5×10^4 cells/well of the breast cancer MB231 cell, the lung cancer A549 cell and the nasopharyngeal cancer HONE1 cell were seeded into each upper insert of Boyden chamber for 3 hours of cultivation.
as §3, with “And then,” for “Next,”, “euPTX3” for “euPTX3 and pPTX3/C”, “4′,6-diamidino-2-phenylindole” for “4′, 6-diamidino-2-phenylindole”

[7] = system: drug-resistant MB231R breast cancer; test: Xenograft tumor model, CDDP-resistant MB231R cells in NOD-SCID mice; format: in vivo, mouse; details: for tumor growth (tumor size): 50 μg short peptide intratumorally twice weekly; for tumor growth (tumor size) / drug resistance generated by the tumor: FIG. 4D; for tumor metastasis and growth (images of tumors of various organs, epi-fluorescence radiance efficiency): IVIS imaging; for tumor metastasis (number of metastatic nodules per lung) / tumor growth (tumor weight per lung): sacrificed after ten weeks; for tumor metastasis (number of metastatic nodules per lung): FIG. 4E left panel; for tumor growth (tumor weight per lung): FIG. 4E right panel; for drug resistance generated by the tumor: 50 μg short peptide intratumorally twice weekly combined with CDDP 5 mg/kg i.p. once weekly
Method: Besides, 1×10^6 mCherry fluorescent protein-labeled CDDP-resistant human MDA-MB-231 cells (MB231R; ATCC CRL-2539) were inoculated subcutaneously to the rear side of the back of six to eight-week-old female NOD-SCID immunodeficiency mice (purchased from Laboratory Animal Center of National Cheng Kung University). After 1 week of inoculation, the mice were intraperitoneally injected with 5 mg/kg of CDDP [dissolved in 1% (w/v) DMSO] or only 1% (w/v) of DMSO once weekly, and intratumorally uninjected or injected with 50 μg of the short peptides RI37, GI40 and KT44 of Example 1 twice weekly. The mice were sacrificed after ten weeks of inoculation. Spleen, kidneys, lungs and liver were obtained, tumor weight of those organs were measured according to 3 replications per group, and the metastatic activity and the number of metastatic nodules per organ were confirmed by IVIS Spectrum Imaging System. The tumor size was measured by a commercial external caliper, and the tumor volume (V) was calculated by the following formula (I). Each condition of the experiment was repeated at least thrice.

[8] = system: breast cancer MB231 cell; test: MTT cell viability (cell toxicity) of cancer cells co-cultured with short peptides; format: cell-based, human; details: MB231 co-cultured with increasing amount of short peptide for 24 hours or 48 hours; FIG. 1B
Method: After the human breast cancer MB231 cell of Example 2 was co-cultured with the short peptides RI37, GI40 and KT44 of Example 1 for 24 hours or 48 hours, the cell toxicity was analyzed by using MTT [3-(4,5-dimethylthiazol-2-yl)-2,5-[…] tetrazolium bomide] (Sigma). The transparent and colorless tetrazolium salt of MTT was degraded by mitochondrial dehydrogenase in live cells and converted to blue formazan crystals. Based on the cell viability of the cell in the absence of the short peptides of Example 1 as 100%, the influence of the cancer cell proliferation could be determined by using the short peptides.

[9] = system: drug-resistant breast cancer MB231R (MBR) cells; test: Cancer cell invasion (matrigel-coated insert) induced by euPTX3; format: cell-based, human
[10] = breast cancer cells, short peptide 10 μg/mL + euPTX3 2.5 μg/mL, FIG. 1E left panel
[11] = breast cancer cells, short peptide 10 μg/mL + euPTX3 2.5 μg/mL, FIG. 1E right panel
[12] = MB231R (MBR), identical molecular number: euPTX3 2.5 μg/mL, RI37 3.7 μg/mL, GI40 4 μg/mL, pPTX3/C 10 μg/mL, FIG. 5B left panel
[13] = MB231R (MBR), identical molecular number: euPTX3 2.5 μg/mL, RI37 3.7 μg/mL, GI40 4 μg/mL, pPTX3/C 10 μg/mL, FIG. 5B right panel

Row | Substance | drug resistance induced by the polypeptide euPTX3 (cell viability) [1] | drug resistance induced by the polypeptide euPTX3 (cell viability) [2] | drug resistance induced by the polypeptide euPTX3 (cell viability) [3] | invasive cell numbers induced by the polypeptide euPTX3 [4] | invasive cell numbers induced by the polypeptide euPTX3 [5] | migrated cell numbers induced by the polypeptide euPTX3 [6, 10] | tumor growth (tumor size) [7] | metastatic nodules in organs (imaging) ([7]; FIG. 4F) | tumor metastasis and growth (images of tumors of various organs, epi-fluorescence radiance efficiency) ([7]; FIG. 4F) | tumor metastasis (number of metastatic nodules per lung) [7] | tumor growth (tumor weight per lung) [7] | cell viability [8] | invasive cell numbers induced by the polypeptide euPTX3 [9, 11] | migrated cell numbers induced by the polypeptide euPTX3 [6, 12] | drug resistance generated by the tumor [7] | invasive cell numbers induced by the polypeptide euPTX3 [9, 13]
1 | KT44: artificially synthetic peptide having the amino acid sequence listed as SEQ ID NO:3 (KLVAEAMVSLGRWTHLCGTWNSEEGLTSLWVNGELAATTVEMAT; The 255th amino acid to 298th amino acid of Human sapiens PTX3 (KT44)) | could not significantly inhibit the drug resistance | could not significantly inhibit the drug resistance | could not significantly inhibit the drug resistance | could not inhibit the invasive cell numbers | could not inhibit the invasive cell numbers | could not inhibit the migrated cell numbers | could not significantly inhibit the tumor growth | metastatic nodules was found in lungs | could not significantly inhibit tumor metastasis and growth | could not significantly inhibit tumor metastasis | could not significantly inhibit tumor metastasis and growth | no significant influence on the cell viability | could not inhibit the invasive cell numbers |  |  | 
2 | RI37: artificially synthetic short peptide having the amino acid sequence listed as SEQ ID NO:1, designed from human PTX3 (NP_002843.2) (RPMRLESFSACIWVKATDVLNKTILFSYGTKRNPYEI; The 200th amino acid to 236th amino acid of Human sapiens PTX3 (RI37)) | could effectively inhibit the drug resistance | could effectively inhibit the drug resistance | could effectively inhibit the drug resistance | could effectively inhibit the invasive cell numbers | could effectively inhibit the invasive cell numbers | could effectively inhibit the migrated cell numbers | could inhibit tumor growth |  | could inhibit tumor metastasis and growth | could inhibit tumor metastasis | could inhibit tumor metastasis and growth | no significant influence on the cell viability | could effectively inhibit the invasive cell numbers | could effectively inhibit the migrated cell numbers | reduce the drug resistance | could effectively inhibit the invasive cell numbers
3 | GI40: artificially synthetic short peptide having the amino acid sequence listed as SEQ ID NO:2, designed from human PTX3 (NP_002843.2) (GGGFDETLAFSGRLTGFNIWDSVLSNEEIRETGGAESCHI; The 320th amino acid to 359th amino acid of Human sapiens PTX3 (GI40)) | could effectively inhibit the drug resistance | could effectively inhibit the drug resistance | could effectively inhibit the drug resistance | could effectively inhibit the invasive cell numbers | could effectively inhibit the invasive cell numbers | could effectively inhibit the migrated cell numbers | could inhibit tumor growth |  | could inhibit tumor metastasis and growth | could inhibit tumor metastasis | could inhibit tumor metastasis and growth | no significant influence on the cell viability | could effectively inhibit the invasive cell numbers | could effectively inhibit the migrated cell numbers | reduce the drug resistance | could effectively inhibit the invasive cell numbers

Source: patent US20180002400A1, “SHORT PEPTIDE-BASED THERAPEUTIC AGENT AND MEDICINAL COMPOSITION INCLUDING THE SAME FOR INHIBITING ACTIVITIES OF CANCER CELLS” (NATIONAL CHENG KUNG UNIVERSITY, priority 2015, published 2018)
